In patent US6476065B2, “Discalamide compounds and their use as anti-proliferative agents” (priority 2000, dated 2002):

Experiments:
[1] = tested on: P388 murine leukemia cell line; experiment: P388 cytotoxicity (antiproliferative) MTT assay; format: cell-based; conditions: P388 murine leukemia cells, 48 hours exposure
Method: (§1) Compounds were analyzed as to their effects on proliferation of A549 human lung adenocarcinoma and P388 murine leukemia cell lines. P388 cells were obtained from Dr. R. Camalier, National Cancer Institute, Bethesda, Md., and A549 cells were obtained from American Type Culture Collection, Rockville, Md. All cell lines were maintained in Roswell Park Memorial Institute (RPMI) medium 1640 supplemented with 100 U/ml penicillin, […], 60 […], 18 mM HEPES, 0.05 mg/ml gentamicin (Life Technologies, Gaithersburg, Md.) and 10% fetal bovine serum and cultured in plastic tissue culture flasks at 37° C. in humidified air containing 5% CO2. Stock cultures of P388 cells were subcultured 1:20 in fresh tissue culture medium (TCM) every 2 to 3 days. Stock cultures of A549 cells were subcultured 1:10 every 3 to 4 days.
(§2) To assess the antiproliferative effects of agents against P388 cells, 200 μl cultures (96-well tissue culture plates, Nunc, Denmark) were established at 2×10^4 cells/ml in TCM or TCM containing the test agent at 0.03-5.0 μg/ml. After 48 hours exposure, P388 cells were enumerated using 3-[4,5-dimethylthiazol-2-yl]-2,5-diphenyltetrazolium bromide (MTT) as described in the literature (Alley, M. D. et al. [1988] Cancer Res. 48:589). A549 cells were enumerated in the same manner using 200 μl cultures established at 3×10^4 cells/ml and exposing the cultures to the test agents for 72 hours. The results were expressed as percent inhibition compared to the negative (no drug) control. Positive drug controls of varying dilutions of 5-fluorouracil and adriamycin (Sigma Chemical Co., St. Louis, Mo.) were included to monitor drug sensitivity of the cell line.
(§3) To quantitate the effects of compounds on cell proliferation and resulting IC50 values, 75 μl of warm growth media containing 5 mg/ml MTT is added to each well, cultures returned to the incubator, and left undisturbed for 3 hours. To spectrophotometrically quantitate formation of reduced formazan, plates are centrifuged (500×g, 10 minutes), culture fluids removed by aspiration, and 200 μl of acidified isopropanol (2 ml concentrated HC1/liter isopropanol) added per well. The absorbance of the resulting solutions is measured in a plate reader (Tecan Spectra SLT; TECAN U.S., Research Triangle Park, NC) at 570 nm with a 650 nm reference filter. The absorbance of tests wells is divided by the absorbance of drug-free wells, and the concentration of agent that results in 50% of the absorbance of untreated cultures (IC50) is determined by linear regression of logit-transformed data (Finney, D. J. [1978] Statistical Method in Biological Assay, third ed., pp.316-348, Charles Griffin Co., London). A linear relationship between tumor cell number and formazan production has been routinely observed over the range of cell densities observed in these experiments. The two standard drug controls (indicated above) are included in each assay as a check to monitor the drug sensitivity of each of the cell lines and IC50 values are determined for each drug-cell combination.

[2] = tested on: A549 human lung adenocarcinoma cell line; experiment: A549 cytotoxicity (antiproliferative) MTT assay; format: cell-based; conditions: A549 human lung adenocarcinoma cells, 72 hours exposure
Method: as §1, §2, §3

[3] = tested on: NCI in vitro tumor cell line panel (approximately 60 cell lines); experiment: National Cancer Institute's in vitro tumor cell line panel; format: cell-based, human
From the text: Discalamide A was additionally evaluated for its anti-proliferative effects utilizing the National Cancer Institute's in vitro tumor cell line panel. The results of these analyses are shown in the mean graphs presented as FIG. 3. The data are presented using known and accepted measurements of “lethal concentration-50” (LC50) where 50% of the cells are killed.

| Compound | IC50 [1] [nM] | IC50 [2] [nM] | effectiveness according to LC50 measurements for the NCI cell lines ([3]; HL-60(TB), K562, COLO 205, HCC-2998, SF-295, SNB-19, LOX IMVI, MALME-3M, M14, SK-MEL-2, SK-MEL-28, SK-MEL-5, UACC-257, CAKI-1, HS578T, MDA-MB-231/ATCC) | selective cytotoxicity by LC50 mean graphs (number of cell lines) ([3]; of approximately 60 cell lines tested, bars to the right of the midline, FIG. 3) [cell lines] | IC50 ([1]; Mus musculus) [nM] |
| --- | --- | --- | --- | --- | --- |
| C=C1C[C@](OC)([C@H](O)C(=O)N[C@H]2OCO[C@H]3[C@@H]2O[C@H](CC(/C=C/C/C=C/C=C/C(=O)O)OC)C(C)(C)[C@@H]3OC)O[C@H](C)[C@@H]1C (some centres unmarked) [2GP111 (Discalamide A), Discalamide A] | 0.1 | 1.5 | particularly effective | 16 | – |
| C=C/C=C\[C@H](C)[C@H](OC(N)=O)[C@@H](C)[C@H](O)[C@@H](C)C/C(C)=C\[C@H](C)[C@@H](O)[C@@H](C)/C=C\[C@@H](O)C[C@@H]1OC(=O)[C@H](C)[C@@H](O)[C@H]1C [Discodermolide] | – | 25 | – | – | 55 |
| COc1cc2c(cc1O)CCN[C@]21CS[C@@H]2c3c(OC(C)=O)c(C)c4c(c3[C@H](COC1=O)N1[C@@H]2[C@H]2c3c(cc(C)c(OC)c3O)C[C@@H]([C@@H]1O)N2C)OCO4 [Ecteinascidin 743] | 1.7 | – | – | – | – |
| C=C(CCC(C)C)COC(=O)[C@H](O)C/C=C\C[C@@H]1O[C@@H]2/C=C/C/C=C/C(C)=C\[C@H]3O[C@@H](C/C=C/C=C/C(=O)O[C@H](C2)[C@@]1(C)CO)C[C@H](O)[C@H]3C [Lasonolide A] | 2.8 | 57 | – | – | – |
| C=C1C[C@](OC)([C@H](O)C(=O)N[C@H]2OCO[C@H]3[C@@H]2O[C@H](C[C@H](O)CO)C(C)(C)[C@@H]3OC)O[C@H](C)[C@@H]1C [Mycalamide A] | 5.2 | 3.6 | – | – | – |
| C=C1C[C@](OC)([C@H](O)C(=O)N[C@H]2OCO[C@H]3[C@@H]2O[C@H](C[C@@H](CO)OC)C(C)(C)[C@@H]3OC)O[C@H](C)[C@@H]1C [Mycalamide B] | 1.3 | 0.6 | – | – | – |
| C=C1C[C@](OC)([C@H](O)C(=O)N[C@H]2OCO[C@H]3[C@@H]2O[C@H](C[C@H](O)CCC/C=C/C=C/C=C/C(=O)N[C@@H](CCCNC(=N)N)C(=O)O)C(C)(C)[C@@H]3OC)O[C@H](C)[C@@H]1C [Onnamide A] | 2.4 | 170 | – | – | – |
| Discalamide A methylester [2GP313 (Discalamide A-methylester)] | 0.3 | 0.8 | – | – | – |
| Discalamide B [2GP311 (Discalamide B)] | 7.3 | 3.2 | – | – | – |
| Ecteinascidin 729 | 1.2 | – | – | – | – |
